O=[N+]([O-])c1cccc2c([N+](=O)[O-])cccc12
solubility (mole fraction)
Details	in acetone	in acetonitrile	in chloroform	in ethanol
273.15 K	0.000703	0.000236	0.000629	1.99e-05
275.65 K	0.000762	0.000265	0.000731	2.25e-05
278.15 K	0.000844	0.000296	0.000881	2.62e-05
280.65 K	0.000912	0.000333	0.00102	3.1e-05
283.15 K	0.000991	0.000372	0.00118	3.66e-05
285.65 K	0.00108	0.000415	0.00135	4.16e-05
288.15 K	0.00117	0.000468	0.00153	4.81e-05
290.65 K	0.00126	0.00053	0.0017	5.43e-05
293.15 K	0.00138	0.000585	0.00192	6.15e-05
295.65 K	0.00149	0.000659	0.00213	6.94e-05
298.15 K	0.00164	0.000741	0.00238	7.82e-05
300.65 K	0.00174	0.000831	0.00269	8.74e-05
303.15 K	0.0019	0.000914	0.00295	9.75e-05
305.65 K	0.00201	0.000997	0.00334	0.000109
308.15 K	0.00217	0.00111	0.00369	0.000122
310.65 K	0.00229	0.00121	0.00408	0.000139
313.15 K	0.00242	0.00133	0.00451	0.000157

Source: BigSolDB 2.1
